Laboratory results as given in patent US20090123979A1, “Methods of reducing the inhibitory effect of a tannin on the enzymatic hydrolysis of cellulosic material” (Novozymes, Inc., priority 2007, published 2009).

Key:
[1] = tested on: T1, Cellulolytic Enzyme Composition #1; assay: PCS hydrolysis by Cellulolytic Enzyme Composition #1 with added compounds; format: biochemical, Trichoderma reesei
T1 construct: other: PASC hydrolysis; mean ± SD; 0.01 g enzyme; Dixon plot linear regression intercept (1/Rate); other: AVICEL; rate from hydrolysis difference (%) at 0 and 6 hours; rate from hydrolysis difference; fused on or other part: The A. oryzae beta-glucosidase is the mature chain secreted behind the Humicola insolens endoglucanase V signal peptide, which is cleaved off
Description: Corn stover was pretreated at the U.S. Department of Energy National Renewable Energy Laboratory (NREL), […], Colo., USA, using dilute sulfuric acid. The following conditions were used for the pretreatment: 1.4 wt % sulfuric acid at 195° C. for 4.5 minutes. According to limit digestion with excess cellulase enzymes, the water-insoluble solids in the pretreated corn stover (PCS) contained 59.5% cellulose. Prior to use, the PCS was washed with a large volume of deionized water until soluble acid and sugars were removed. The dry weight of the water-washed PCS was 19.16%.
The effect of a mixture of tannic acid, ellagic acid, epicatechin, and six lignin constituent compounds (4-hydroxyl-2-methylbenzoic acid, vanillin, coniferyl alcohol, coniferyl aldehyde, ferulic acid, and syringaldehyde) was determined on the hydrolysis of PCS by Cellulolytic Enzyme Composition #1 or Cellulolytic Enzyme Composition #2. […] Cellulolytic Enzyme Composition #1 or Cellulolytic Enzyme Composition #2 was added at 0.25 g per liter. Reactions without the addition of the compounds served as controls. The capped tubes were incubated at 50° C. in an INNOVA® 4080 incubator shaker (New Brunswick Scientific Co., Inc., Edison, N.J., USA) at 150 rpm.
Aliquots of the suspensions, sampled over time, were filtered by centrifugation using a 0.45 μm MULTISCREEN® HV membrane (Millipore, Billerica, Mass., USA) at 2000 rpm for 15 minutes using a SORVALL® RT7 centrifuge (Thermo Fisher Scientific, Waltham, Mass., USA). When not used immediately, the filtered aliquots were frozen at −20° C. Sugar concentrations of the samples diluted in 0.005 M H2SO4 were measured after elution by 0.005 M H2SO4 at a flow rate of 0.4 ml/minute from a 4.6×250 mm AMINEX® HPX-87H column (Bio-Rad, Hercules, Calif., USA) at 65° C. with quantitation by integration of glucose and cellobiose using refractive index detection (CHEMSTATION®, AGILENT® 1100 HPLC, Agilent Technologies, Santa Clara, Calif., USA) calibrated with standards of glucose and cellobiose. The resultant equivalents were used to calculate the percentage of cellulose conversion for each reaction.
The degree of cellulose conversion to glucose plus cellobiose sugars (conversion, %) was calculated using the following equation:
Conversion(%)=(glucose+cellobiose×1.053)(mg/ml)×100×162/cellulose(mg/ml)×180)=(glucose+cellobiose×1.053)(mg/ml)×100/(cellulose(mg/ml)×1.111)
In this equation the factor 1.111 reflects the weight gain in converting cellulose to glucose, and the factor 1.053 reflects the weight gain in converting cellobiose to glucose. Cellulose in PCS was determined by a limit digest of PCS to release glucose and cellobiose.
Example 30 was repeated except that each compound was tested separately. […] Reactions without the addition of each compound served as controls.
The effect of OPC or flavonol on the hydrolysis of PCS by Cellulolytic Enzyme Composition #1 or Cellulolytic Enzyme Composition #2 was determined according to the procedure described in Example 30. OPC and flavonol were present at a concentration of 1 mM. Reactions without the addition of the compounds served as controls.
Methyl gallate and ellagic acid were compared at 10 mM to 1 mM tannic acid in the hydrolysis of PCS by Cellulolytic Enzyme Composition #1.

[2] = tested on: Cellulolytic Enzyme Composition #1; assay: AVICEL hydrolysis by Cellulolytic Enzyme Composition #1 with added compounds; format: biochemical, Trichoderma reesei; settings: AVICEL pre-incubated with 1 mM tannic acid 1 hour at 50° C., then washed
Description: (§1) Initial hydrolysis rates were obtained from the first two hydrolysis time points (i.e., soluble sugar measurements) (with <20% hydrolysis extent in general, rate=(hydrolysis difference)/(time difference)). Double-reciprocal plots (1/(initial rate) vs 1/[cellulose] as function of tannic acid concentration) indicated a “mixed” type inhibition, but their complexity prevented extraction of simple inhibitor constants. Initial rate vs tannic acid concentration yielded an I50 (inhibitor concentration leading to 50% loss of hydrolysis rate) of 0.2±0.1 or 0.27±0.07 mM on PASC or AVICEL® hydrolysis, respectively
(§2) To examine where tannic acid exerted its inhibition, a series of hydrolysis reactions of AVICEL® by Cellulolytic Enzyme Composition #1 was performed in which AVICEL® and Cellulolytic Enzyme Composition #1 were used fresh or after pre-incubation with tannic acid. […] (with detectable precipitation seen), the pre-incubated Cellulolytic Enzyme Composition #1 was gel-filtered using BioSpin 6 desalting columns (Bio-Rad, Hercules, Calif., USA). […] Hydrolysis of untreated or buffer-only pre-incubated AVICEL® and Cellulolytic Enzyme Composition #1, with or without inhibitors, served as controls.

[3] = tested on: T1, Cellulolytic Enzyme Composition #1; assay: as above; format: biochemical, Trichoderma reesei
Description: as §1, §2

[4] = target: T2, Trichoderma reesei CEL7B endoglucanase I (Trichoderma reesei, UniProt P07981); assay: PASC hydrolysis by CEL7B endoglucanase I with tannic acid; format: biochemical
T2 construct: made in house; host or cells: Aspergillus oryzae JaL250
Description: (§3) The inhibitory effect of tannic acid was determined on Trichoderma reesei CEL7A cellobiohydrolase 1, Trichoderma reesei CEL6A cellobiohydrolase II, Trichoderma reesei CEL7B endoglucanase 1, and Trichoderma reesei CEL5A endoglucanase II using PASC as substrate.
(§4) To quantify the inhibition, tannic acid was evaluated in the hydrolysis of PASC.

[5] = target: T3, Trichoderma reesei CEL5A endoglucanase II (Trichoderma reesei, UniProt P07982); assay: PASC hydrolysis by CEL5A endoglucanase II with tannic acid; format: biochemical
T3 construct: made in house
Description: as §3, §4

[6] = 50 g PCS, 0.25 g enzyme per liter, methyl gallate and ellagic acid 10 mM, tannic acid 1 mM
[7] = 25 g AVICEL, 0.25 g enzyme per liter, 1 mM tannic acid, or 5 mM ellagic acid or 10 mM methyl gallate plus 1 mM glucose pentaacetate
[8] = AVICEL, rate from hydrolysis difference (%) at 0 and 6 hours
[9] = 1 mM tannic acid, 2 g PASC per liter, over 4 hours
[10] = PASC, 0.1 to 0.7 mM tannic acid

T3 sequence (P07982 22-418): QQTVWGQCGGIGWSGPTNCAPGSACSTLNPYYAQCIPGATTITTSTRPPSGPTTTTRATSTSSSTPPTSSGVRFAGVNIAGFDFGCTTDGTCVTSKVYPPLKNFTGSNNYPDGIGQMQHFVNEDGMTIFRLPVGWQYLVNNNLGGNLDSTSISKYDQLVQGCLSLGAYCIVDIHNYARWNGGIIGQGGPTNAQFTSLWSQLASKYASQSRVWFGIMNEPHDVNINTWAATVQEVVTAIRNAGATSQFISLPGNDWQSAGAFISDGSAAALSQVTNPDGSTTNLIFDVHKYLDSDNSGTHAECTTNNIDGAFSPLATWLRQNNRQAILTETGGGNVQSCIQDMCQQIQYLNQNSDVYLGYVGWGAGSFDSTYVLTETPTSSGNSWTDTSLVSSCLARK
T2 sequence (P07981 23-459): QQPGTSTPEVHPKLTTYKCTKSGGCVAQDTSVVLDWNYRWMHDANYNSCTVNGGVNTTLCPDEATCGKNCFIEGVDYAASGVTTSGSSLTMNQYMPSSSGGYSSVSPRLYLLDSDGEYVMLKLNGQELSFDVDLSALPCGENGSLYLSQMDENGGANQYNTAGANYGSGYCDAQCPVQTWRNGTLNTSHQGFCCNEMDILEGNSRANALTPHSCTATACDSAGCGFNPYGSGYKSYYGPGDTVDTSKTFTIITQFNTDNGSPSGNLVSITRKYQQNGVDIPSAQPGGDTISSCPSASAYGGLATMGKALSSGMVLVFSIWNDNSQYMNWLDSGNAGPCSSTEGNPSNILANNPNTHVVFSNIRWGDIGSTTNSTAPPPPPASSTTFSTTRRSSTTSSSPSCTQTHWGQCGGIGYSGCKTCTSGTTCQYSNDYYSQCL

O=C(OC[C@H]1O[C@@H](OC(=O)c2cc(O)c(O)c(OC(=O)c3cc(O)c(O)c(O)c3)c2)[C@H](OC(=O)c2cc(O)c(O)c(OC(=O)c3cc(O)c(O)c(O)c3)c2)[C@@H](OC(=O)c2cc(O)c(O)c(OC(=O)c3cc(O)c(O)c(O)c3)c2)[C@@H]1OC(=O)c1cc(O)c(O)c(OC(=O)c2cc(O)c(O)c(O)c2)c1)c1cc(O)c(O)c(OC(=O)c2cc(O)c(O)c(O)c2)c1 [tannic acid, Tannic acid]
effect on hydrolysis of PCS by Cellulolytic Enzyme Composition #1 ([1]; 1 mM each compound, 43.4 g PCS and 0.25 g enzyme per liter, pH 5.0, 50° C.): significantly inhibited | loss in initial rate of PCS hydrolysis [1, 6]: ~70% | loss in the extent of PCS hydrolysis at day 4 [1, 6]: ~60% | effect of pre-incubating AVICEL with inhibitor on hydrolysis [2]: did not affect the hydrolysis | loss in initial rate of AVICEL hydrolysis [3, 7]: ~90% | loss in the extent of AVICEL hydrolysis at day 8 [3, 7]: ~70% | Ki ([3]; AVICEL hydrolysis, Cellulolytic Enzyme Composition #1, OPC in flavanone-equivalent subunits, read-out: inhibition constant Ki (x-intercept of Dixon plot)): ~130 µM | IC50 ([3]; AVICEL hydrolysis, 0.01 g enzyme per liter, pH 5.0, 50° C., read-out: I50 (inhibitor concentration leading to 50% loss of hydrolysis rate)): 270 ± 70 µM | Dixon plot linear regression intercept (1/Rate) [3, 8]: 0.045±0.017 | Dixon plot linear regression slope (1/Rate vs inhibitor concentration) [3, 8]: 0.356±0.033 | activity loss of pre-incubated Cellulolytic Enzyme Composition #1 ([3]; enzyme pre-incubated with 1 mM tannic acid 1 hour at 50° C., then gel-filtered): approximately 80% | concentration dependence of inhibition of AVICEL hydrolysis ([3]; tannic acid 0.05 mM to 1 mM, OPC 1 mM to 10 mM, 23 g AVICEL and 0.25 g enzyme per liter): increasingly inhibitory | effect on PASC hydrolysis by CEL7B endoglucanase I [4, 9]: significantly inhibited | IC50 ([4]; PASC hydrolysis, mean ± SD, 0.04 g enzyme per liter, pH 5, 50° C., read-out: I50 for CEL7B EGI): 300 ± 200 µM | type of inhibition (double reciprocal plots), CEL7B EGI [4, 10]: mixed | effect on PASC hydrolysis by CEL5A endoglucanase II [5, 9]: significantly inhibited | IC50 ([5]; PASC hydrolysis, mean ± SD, 0.04 g enzyme per liter, pH 5, 50° C., read-out: I50 for CEL5A EGII): 320 ± 50 µM | type of inhibition (double reciprocal plots), CEL5A EGII [5, 10]: mixed
